Measured values as given in patent US20240269139A1, “COMPOUNDS FOR TARGETED PROTEIN DEGRADATION OF KINASES” (DANA-FARBER CANCER INSTITUTE, INC., priority 2020, published 2024).
Read-outs that look alike come from different tables or passages of the source.

How the values were obtained:
[1] = target: T1, protein kinases (human kinome) (Homo sapiens, UniProt Q9NYY8); format: cell-based; settings: Experiment wp056; direction down
T1 sequence (Q9NYY8 1-710): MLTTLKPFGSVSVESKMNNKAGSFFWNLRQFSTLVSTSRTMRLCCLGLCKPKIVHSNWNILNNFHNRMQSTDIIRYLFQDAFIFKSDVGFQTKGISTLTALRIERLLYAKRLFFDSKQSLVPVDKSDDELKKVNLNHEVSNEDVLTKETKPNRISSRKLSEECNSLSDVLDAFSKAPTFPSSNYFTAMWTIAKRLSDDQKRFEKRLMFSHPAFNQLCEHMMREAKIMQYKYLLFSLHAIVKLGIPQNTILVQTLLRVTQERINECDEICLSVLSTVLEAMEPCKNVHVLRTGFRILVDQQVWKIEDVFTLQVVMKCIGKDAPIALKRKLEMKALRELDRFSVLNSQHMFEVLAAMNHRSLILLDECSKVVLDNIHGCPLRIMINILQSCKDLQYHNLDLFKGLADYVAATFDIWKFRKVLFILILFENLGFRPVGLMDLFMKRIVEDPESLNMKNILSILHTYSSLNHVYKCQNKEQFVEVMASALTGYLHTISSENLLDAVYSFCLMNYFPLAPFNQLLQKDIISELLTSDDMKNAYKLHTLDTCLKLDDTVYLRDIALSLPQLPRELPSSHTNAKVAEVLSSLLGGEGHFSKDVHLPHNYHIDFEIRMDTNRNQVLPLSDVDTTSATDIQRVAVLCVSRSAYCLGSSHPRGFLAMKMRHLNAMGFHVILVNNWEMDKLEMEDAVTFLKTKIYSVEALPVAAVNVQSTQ

[2] = test system: protein kinases (human kinome); format: cell-based; settings: for logFC ABL1: ABL1 (P00519-2); for logFC of SRC: Accession P12931-2; for logFC LCK: accession P06239-3
[3] = target: protein kinases (human kinome) (Homo sapiens, UniProt P51451); format: cell-based; settings: for logFC BLK: BLK (P51451), direction down; for logFC of BLK (P51451): down
protein kinases (human kinome) (Homo sapiens, UniProt P51451), sequence (P51451 whole entry): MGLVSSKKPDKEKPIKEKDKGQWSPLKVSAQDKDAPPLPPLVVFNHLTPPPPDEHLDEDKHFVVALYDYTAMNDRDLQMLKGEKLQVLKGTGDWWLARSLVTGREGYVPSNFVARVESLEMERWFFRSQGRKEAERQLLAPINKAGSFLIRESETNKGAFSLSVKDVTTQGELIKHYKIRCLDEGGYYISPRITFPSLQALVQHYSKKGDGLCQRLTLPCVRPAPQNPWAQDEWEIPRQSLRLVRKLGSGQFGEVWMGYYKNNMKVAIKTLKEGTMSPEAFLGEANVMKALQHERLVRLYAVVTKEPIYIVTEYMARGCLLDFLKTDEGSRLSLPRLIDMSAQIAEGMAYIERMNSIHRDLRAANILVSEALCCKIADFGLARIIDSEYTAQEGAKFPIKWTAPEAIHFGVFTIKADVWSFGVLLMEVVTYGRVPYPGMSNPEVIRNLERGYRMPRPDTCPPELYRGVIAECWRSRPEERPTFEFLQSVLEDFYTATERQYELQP

[4] = target: T2, extended human kinome (kinase-like proteins) (Homo sapiens, UniProt P54886); assay: Whole cell quantitative proteomics: extended kinome hits; settings: Accession P54886; experiment wp056
T2 sequence (P54886 1-795): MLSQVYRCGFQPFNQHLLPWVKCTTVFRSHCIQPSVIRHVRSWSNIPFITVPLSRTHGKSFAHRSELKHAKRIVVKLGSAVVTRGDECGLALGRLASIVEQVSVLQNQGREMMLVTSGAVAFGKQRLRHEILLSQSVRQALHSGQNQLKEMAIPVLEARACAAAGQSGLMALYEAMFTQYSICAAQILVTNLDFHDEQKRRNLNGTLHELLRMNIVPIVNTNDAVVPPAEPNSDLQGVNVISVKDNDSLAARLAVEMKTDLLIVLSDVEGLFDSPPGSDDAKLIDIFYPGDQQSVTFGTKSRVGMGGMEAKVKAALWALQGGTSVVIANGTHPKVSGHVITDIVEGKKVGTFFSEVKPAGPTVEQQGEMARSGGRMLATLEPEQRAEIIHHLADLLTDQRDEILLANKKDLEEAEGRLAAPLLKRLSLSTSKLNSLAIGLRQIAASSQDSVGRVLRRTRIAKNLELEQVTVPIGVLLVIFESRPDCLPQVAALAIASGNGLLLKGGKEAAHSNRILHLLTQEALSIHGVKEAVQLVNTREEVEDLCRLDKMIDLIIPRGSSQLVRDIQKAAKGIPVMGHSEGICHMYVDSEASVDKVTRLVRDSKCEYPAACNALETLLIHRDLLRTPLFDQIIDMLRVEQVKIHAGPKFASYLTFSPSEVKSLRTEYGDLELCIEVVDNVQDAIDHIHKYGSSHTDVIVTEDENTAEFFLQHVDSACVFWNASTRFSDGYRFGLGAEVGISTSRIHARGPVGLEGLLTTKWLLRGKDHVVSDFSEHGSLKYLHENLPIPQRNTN

[5] = experiment wp056, direction of change down
[6] = experiment wp103, direction of change down
[7] = experiment wp107, direction of change down

Cc1ccc(C(=O)Nc2ccc(CN3CCN(CCCOCCOCCOCCNC(=O)COc4cccc5c4C(=O)N(C4CCC(=O)NC4=O)C5=O)CC3)c(C(F)(F)F)c2)cc1C#Cc1cnc2cccnn12 (stereo not drawn) [SB1.G.187]
logFC FASTKD2 (Q9NYY8) [1]: −0.3881 | logFC ABL1 ([2]; experiment wp056): −0.5173 | logFC ABL1 ([2]; experiment wp103): −0.754 | logFC ABL1 ([2]; experiment wp107): −0.5339 | logFC FYN ([2]; Accession P06241-2, experiment wp107): −0.5334 | logFC of SRC ([2]; experiment wp056): −0.604 | logFC of SRC ([2]; experiment wp103): −0.8282 | logFC of SRC ([2]; experiment wp105): −0.5683 | logFC of SRC ([2]; experiment wp107): −1.206 | logFC MAP3K20 (Q9NYL2-2) ([2]; Experiment wp103): −0.6203 | logFC MAP3K20 (Q9NYL2-2) ([2]; Experiment wp107): −0.4387 | logFC MAP3K20 (Q9NYL2-2) ([2]; Experiment wp114): −0.7846 | logFC of LYN (P07948-2) ([2]; Experiment wp114): −0.4408 | logFC ([2]; FER (P16591-3), experiment wp172, direction down): −1.394 | logFC of FER ([2]; FER P16591-3, experiment wp172): −1.394 | logFC FYN ([2]; FYN P06241-2, experiment wp107): −0.5334 | logFC ([2]; GK P32189-3, experiment wp056): −0.4719 | logFC LCK [2, 5]: −1.003 | logFC LCK [2, 6]: −1.237 | logFC LCK [2, 7]: −1.237 | logFC ([2]; LYN (P07948-2), experiment wp105): −1.087 | logFC ([2]; LYN (P07948-2), experiment wp114): −0.4408 | logFC MAPK14 ([2]; MAPK14, accession Q16539-2, experiment wp056, direction of change down): −0.8019 | logFC MAPK14 ([2]; MAPK14, accession Q16539-2, experiment wp105, direction of change down): −0.9084 | logFC MAPK14 ([2]; MAPK14 Q16539-2, experiment wp056): −0.8019 | logFC MAPK14 ([2]; MAPK14 Q16539-2, experiment wp105): −0.9084 | logFC PDK3 ([2]; PDK3 (Q15120-2), experiment wp056): −0.4827 | logFC ABL1 (P00519-2) ([2]; experiment wp056): −0.5173 | logFC PDK3 (Q15120-2) ([2]; experiment wp056): −0.4827 | logFC LCK (P06239-3) [2, 5]: −1.003 | logFC ABL1 (P00519-2) ([2]; experiment wp103): −0.754 | logFC MAP3K20 (Q9NYL2-2) ([2]; experiment wp103): −0.6203 | logFC LCK (P06239-3) [2, 6]: −1.237 | logFC of LYN (P07948-2) ([2]; experiment wp105): −1.087 | logFC ABL1 (P00519-2) ([2]; experiment wp107): −0.5339 | logFC MAP3K20 (Q9NYL2-2) ([2]; experiment wp107): −0.4387 | logFC LCK (P06239-3) [2, 7]: −1.237 | logFC MAP3K20 (Q9NYL2-2) ([2]; experiment wp114): −0.7846 | logFC BLK ([3]; experiment wp103): −2.098 | logFC BLK ([3]; experiment wp107): −1.916 | logFC of BLK ([3]; BLK P51451, experiment wp056): −2.021 | logFC of BLK (P51451) ([3]; Experiment wp056): −2.021 | logFC of BLK (P51451) ([3]; Experiment wp103): −2.098 | logFC of BLK (P51451) ([3]; Experiment wp107): −1.916 | logFC ALDH18A1 [4]: −0.4458
